pIC50: −log10 of the molar value. Structures can show the parent of a compound that is named as a salt.
Columns and labels:
[1] = test system: human platelet-rich plasma; assay: Platelet aggregation assay, Aggregation-Human PRP/ADP; type: cell-based; settings: inhibition of ADP-induced aggregation of human platelet-rich plasma
Experimental: No. 2—The Platelet Aggregation Assay
In addition to the ELISA IIb-IIIa assay previously described the Aggregation-Human PRP/ADP Assay is useful for evaluating therapeutic compounds.
Platelet-rich plasma was prepared from healthy human volunteers for use in determining inhibition of platelet aggregation by the compounds. Blood was collected via a 21-gauge butterfly cannula, using a two-syringe technique into 1/10 volume of 3.8% trisodium citrate.
Platelet-rich plasma was prepared at room temperature by centrifugation of the citrated whole blood at 100×g for twelve minutes. The platelet rich plasma contained approximately 200-400,000 platelets/μl.
Platelet-poor plasma was prepared by centrifugation of citrated whole blood at 12,000×g for 2 minutes.
Platelet aggregation was assayed in a 4-channel platelet aggregatiob profiler (PAP-4, Biodata, Hatboro, Pa.) according to the manufacturers directions. Inhibition of platelet aggregation was studied by adding varying amounts of adenosine diphosphate (ADP) to stirred human platelet-rich plasma. Specifically, the human platelet-rich plasma was incubated with the compound being tested for 1 minute at 37° C. prior to the addition of a variety of aggregating agents most often ADP 5 μM, but also 1 μg/ml collagen, 1 μM U46619 and 0.3 μM platelet activating factor.

GPIIb-IIIa = biological target: T1, GPIIb-IIIa (Homo sapiens, UniProt P05106+P08514); assay: ELISA IIb-IIIa assay (fibrinogen binding to immobilized GPIIb-IIIa); settings: inhibition of biotinylated fibrinogen binding to plate-coated purified platelet GPIIb-IIIa receptor
T1 construct: Purified platelet GPIIb-IIIa receptor was prepared as described by Fitzgerald; from tissue; host or cells: platelets
Experimental: No. 1—The ELISA IIb-IIIa Assay:
In the following assay, GPIIb-IIIa is prepared in purified form, by a method such as described by Fitzgerald, L. A., et al., Anal Biochem (1985) 151:169-177, (the disclosure of which is incorporated herein by reference). GPIIb-IIIa is coated onto microtiter plates. The coated support is then contacted with fibrinogen and with the test material (e.g., compounds of Formula I) and incubated for a sufficient time to permit maximal binding of fibrinogen to the immobilized GPIIb-IIIa. Fibrinogen is typically provided at a concentration of about 5-50 nM and the test material can, if desired, be added at a series of dilution. Typical incubations are 2 to 4 hours at 25° C., the time and temperature being interdependent.
After incubation, the solution containing the fibrinogen and test material is removed and the level of binding of fibrinogen measured by quantitating bound fibrinogen to GPIIb-IIIa. Any suitable means of detection may be used, but it is convenient to employ labeled fibrinogen, for example using biotinylated labels. Such methods are well known in the art.
A. Description of Assays—Plate Assays
Purified platelet GPIIb-IIIa receptor was prepared as described by Fitzgerald, L. A., et al., Anal Biochem (1985) 151:169-177 (1985). Vitronectin receptor was prepared as described by Smith, J. W., J. Biol Chem (1988) 263:18726-18731. After purification, the receptors were stored in 0.1% Triton X-100 at 0.1-1.0 mg/ml.
The receptors were coated to the wells of 96-well flat-bottom ELISA plates (Linbro EIA-Plus microtiter plate, Flow Laboratories) after diluting 1:200 with a solution of 20 mM Tris-HCl, 150 mM NaCl, 1 mM CaCl2, pH 7.4, to reduce the Triton X-100 concentration to below its critical micellar concentration and adding an aliquot of 100 ul to each well. The wells were all allowed to incubate overnight at 4° C., and then aspirated to dryness. Additional sites were blocked by the addition of bovine serum albumin (BSA) at 35 mg/ml in the above buffer for two hours at 30° C. to prevent nonspecific binding. The wells were then washed once with binding buffer ([…] Tris-HCl, 100 mM NaCl 2 mM CaCl2, 1 mg/ml BSA).
The corresponding ligands (fibrinogen, von Willebrand Factor, or vitronectin) were conjugated to biotin using commercially available reagents and standard protocols. The labeled ligands were added to the receptor-coated wells at final concentration of 10 nM (100 ul/well) and incubated for 3 hours at 25° C. in the presence or absence of the test samples. After incubation, the wells are aspirated to dryness and bound ligand is quantitated.
The bound protein is detected by the addition of antibiotin antibody conjugated to alkaline phosphatase followed by addition of substrate (p-nitrophenyl phosphate), and determination of the optical density of each well at […]. Decreased color development is observed in wells incubated with test samples which inhibit binding of ligand to receptor.

T1 sequence (P08514 32-887 limits assumed): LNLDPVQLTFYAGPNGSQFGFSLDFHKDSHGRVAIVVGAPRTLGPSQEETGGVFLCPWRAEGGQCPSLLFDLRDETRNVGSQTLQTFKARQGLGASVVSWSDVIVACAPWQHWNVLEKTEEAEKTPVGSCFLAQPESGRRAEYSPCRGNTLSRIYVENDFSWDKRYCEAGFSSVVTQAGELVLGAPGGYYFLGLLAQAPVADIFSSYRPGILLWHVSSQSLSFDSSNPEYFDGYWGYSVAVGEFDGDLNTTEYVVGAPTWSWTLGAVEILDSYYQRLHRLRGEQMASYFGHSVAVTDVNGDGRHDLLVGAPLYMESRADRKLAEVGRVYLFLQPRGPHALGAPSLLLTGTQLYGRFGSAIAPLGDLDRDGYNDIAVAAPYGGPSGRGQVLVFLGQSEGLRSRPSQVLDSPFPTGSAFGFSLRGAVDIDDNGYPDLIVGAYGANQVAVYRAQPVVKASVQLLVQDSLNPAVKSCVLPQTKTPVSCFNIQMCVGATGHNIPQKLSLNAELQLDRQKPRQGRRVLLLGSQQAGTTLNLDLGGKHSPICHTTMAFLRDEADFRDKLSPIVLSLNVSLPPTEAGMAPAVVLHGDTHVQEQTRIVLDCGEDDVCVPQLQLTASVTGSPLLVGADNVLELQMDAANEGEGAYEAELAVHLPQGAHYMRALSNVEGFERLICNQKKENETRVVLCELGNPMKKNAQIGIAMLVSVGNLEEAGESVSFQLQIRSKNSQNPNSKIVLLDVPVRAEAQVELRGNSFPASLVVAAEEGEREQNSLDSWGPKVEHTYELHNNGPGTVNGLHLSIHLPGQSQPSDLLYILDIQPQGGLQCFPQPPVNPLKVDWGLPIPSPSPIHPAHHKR
T1 sequence (P08514 891-1039 limits assumed): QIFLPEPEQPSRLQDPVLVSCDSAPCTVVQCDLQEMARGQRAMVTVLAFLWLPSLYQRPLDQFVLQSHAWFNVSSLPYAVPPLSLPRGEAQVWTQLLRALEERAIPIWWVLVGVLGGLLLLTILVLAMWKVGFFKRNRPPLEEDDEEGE
T1 sequence (P05106 27-788): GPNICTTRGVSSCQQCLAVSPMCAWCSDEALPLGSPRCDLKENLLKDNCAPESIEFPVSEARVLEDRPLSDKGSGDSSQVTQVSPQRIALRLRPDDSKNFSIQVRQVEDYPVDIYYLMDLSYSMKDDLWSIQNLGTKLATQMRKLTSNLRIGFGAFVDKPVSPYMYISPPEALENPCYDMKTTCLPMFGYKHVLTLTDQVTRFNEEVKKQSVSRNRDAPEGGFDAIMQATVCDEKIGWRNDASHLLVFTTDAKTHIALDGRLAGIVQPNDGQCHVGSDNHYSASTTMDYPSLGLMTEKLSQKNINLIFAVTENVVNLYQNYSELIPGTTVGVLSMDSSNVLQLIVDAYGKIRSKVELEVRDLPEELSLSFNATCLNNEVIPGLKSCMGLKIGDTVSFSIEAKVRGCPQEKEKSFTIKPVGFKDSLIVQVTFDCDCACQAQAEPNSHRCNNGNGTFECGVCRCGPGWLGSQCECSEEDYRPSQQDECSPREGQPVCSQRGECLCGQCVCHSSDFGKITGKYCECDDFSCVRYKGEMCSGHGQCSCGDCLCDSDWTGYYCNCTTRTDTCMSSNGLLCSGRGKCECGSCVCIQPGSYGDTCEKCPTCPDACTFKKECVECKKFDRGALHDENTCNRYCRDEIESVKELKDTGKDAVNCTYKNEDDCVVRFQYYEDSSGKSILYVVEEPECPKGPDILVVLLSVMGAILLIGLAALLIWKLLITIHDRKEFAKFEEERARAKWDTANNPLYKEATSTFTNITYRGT

Row | Compound | pIC50 [1] | pIC50 (GPIIb-IIIa) | melting point [°C]
1 | N=C(N)c1ccc(C2=NOC3(CCN(C(=O)CCC(=O)O)CC3)C2)cc1 [Example 10] | 6.00 |  | 
2 | O=C(O)CN1CCC2(CCN(CCC3CCNCC3)CC2)CC1 [Example 27, (9-(2-(Piperidin-4-yl)ethyl)-3,9-diazaspiro[5.5]undec-3-yl)acetic Acid Tristrifluoroacetate] | 4.00 |  | 
3 | N=C(N)c1ccc(C(=O)N2CCC3(CCC(CC(=O)O)CC3)CC2)cc1 [Example 2, (3-(4-(Aminoiminomethyl)benzoyl)-3-aza-spiro[5.5]undec-9-yl)acetic Acid Hydrochloride] | 6.39 | 8.09 | 
4 | N=C(N)c1ccc(C(=O)N2CCC3(CCN(C(=O)CCC(=O)O)CC3)CC2)cc1 [Example 41, 4-((3-(4-Aminoiminomethyl)benzoyl)-3,9-diaza-spiro[5.5]undec-9-25 yl)-4-oxobutanoic Acid] | 4.85 | 4.82 | 
5 | CCOC(=O)CC1CCC2(CC1)CCN(C(=O)c1ccc(C(=N)N)cc1)CC2 [Example 1, Ethyl (3-(4-(Aminoiminomethyl)benzoyl)-3-aza-spiro[5.5]undec-9-yl)acetate Hydrochloride] | 4.00 | < 5.00 | 
6 | CCOC(=O)CCN1CCC2(CC1)CC(c1ccc(C(=N)N)cc1)=NO2 [Example 14, Hydrochloride] | 6.19 |  | 
7 | N=C(N)c1ccc(C(=O)N2CCC3(CC2)CN(CC(=O)O)C(=O)O3)cc1 [Example 30, (8-(4-(Aminoiminomethyl)benzoyl)-2-oxo-1-oxa-3,8-diaza-spiro[4.5]dec-3-yl)acetic Acid] | 4.10 | 4.54 | 157 to 159
8 | N=C(N)c1ccc(C(=O)NC2CCC3(CC2)CN(CC(=O)O)C(=O)O3)cc1 (stereo not drawn) [Example 36, (8-(4-(Aminoiminomethyl)benzamido)-2-oxo-1-oxa-3-aza-spiro[4.5]dec-3-yl)acetic Acid] | 6.29 | 6.77 | 280 to 284
9 | N=C(N)c1ccc(COC2CCC3(CC2)CN(CC(=O)O)C(=O)O3)cc1 (stereo not drawn) [Example 34, (8-(4-(Aminoiminomethyl)benzyloxy)-2-oxo-1-oxa-3-aza-spiro[4.5]dec-3-yl)acetic Acid] | 5.89 | 6.46 | 
10 | N=C(N)c1ccc(CC(=O)N2CCC3(CC2)CCN(CC(=O)O)C(=O)O3)cc1 [Example 32] | 5.67 | 6.70 | 
11 | N=C(N)c1ccc(C2=NOC3(CCN(CCCCC(=O)O)CC3)C2)cc1 [Example 19] | 6.35 |  | 
12 | O=C(O)CC1CCC2(CC1)CCN(CCc1ccncc1)CC2 [Example 23, (3-(2-(Pyridin-4-yl)ethyl)-3-azaspiro[5.5]undec-9-yl)acetic Acid] | < 4.00 |  | 
13 | N=C(N)NCCCCC(=O)N1CCC2(CC1)CN(CC(=O)O)C(=O)O2 [Example 38] | 5.15 | 5.73 | 
14 | O=C(O)CC1CCC2(CC1)CCN(CCC1CCNCC1)CC2 [Example 25, (3-(2-(Piperidin-4-yl)ethyl)-3-azaspiro[5.5]undec-9-yl)acetic Acid] | < 5.00 |  | 
15 | N=C(N)c1ccc(C2=NOC3(CCN(CCC(=O)O)CC3)C2)cc1 [Example 15, 4-(3-(4-(Aminoiminomethyl)phenyl)-1-oxa-2,8-diaza-spiro[4.5]dec-2-en-8-yl)propanoic Acid] | 6.96 |  | 
16 | N=C(N)c1ccc(C(=O)N2CCC3(CC2)NC(=O)N(CCCC(=O)O)C3=O)cc1 [Example 21, Trifluoroacetate] | < 5.00 |  | 
17 | O=C(O)CN1CCC2(CCN(CCc3ccncc3)CC2)CC1 [Example 20, (9-(2-(Pyridin-4-yl)ethyl)-3,9-diazaspiro[5.5]undec-3-yl)acetic Acid Bistrifluoroacetate] | < 4.00 |  | 

Row | Compound | pIC50 [1] | pIC50 (GPIIb-IIIa) | melting point [°C]
18 | N=C(N)c1ccc(C2=NOC3(CCN(C(=O)CCCC(=O)O)CC3)C2)cc1 [Example 17] | 7.08 |  | 
19 | CCOC(=O)CC1CCC2(CC1)CCN(CCC1CCNCC1)CC2 [Example 24, Ethyl (3-(2-(Piperidin-4-yl)ethyl)-3-azaspiro[5.5]undec-9-yl)acetate] | < 4.00 |  | 
20 | N=C(N)c1ccc(C(=O)N2CCC3(CC2)C(=O)N(CC(=O)O)C(=O)N3Cc2ccccc2)cc1 [Example 13, Trifluoroacetate] | < 4.00 |  | 
21 | N=C(N)c1ccc(C2=NOC3(CCN(CCCC(=O)O)CC3)C2)cc1 [Example 8] | 6.49 |  | 
22 | N=C(N)c1ccc(N2CC3(CCN(CCCC(=O)O)CC3)OC2=O)cc1 [Example 4, 4-(3-(4-(Aminoiminomethyl)phenyl)-2-oxo-1-oxa-3,8-diaza-5 spiro[4.5]dec-8-yl)butanoic Acid Bistrifluoroacetate] | 5.52 |  | 
23 | CCOC(=O)CCCC(=O)N1CCC2(CC1)CC(c1ccc(C(=N)N)cc1)=NO2 [Example 16, Ethyl 5-(3-(4-(Aminoiminomethyl)phenyl)-1-oxa-2,8-diaza-spiro[4.]dec-2-en-8-yl)-5-oxopentanoate Hydrochloride] | 6.70 |  | 
24 | N=C(N)c1ccc(C2=NOC3(CCN(CC(=O)O)CC3)C2)cc1 [Example 6] | 5.40 |  | 
25 | N=C(N)NCCCC(=O)N1CCC2(CC1)CN(CC(=O)O)C(=O)O2 [Example 37] | 4.28 | 4.72 | 
26 | CCOC(=O)CCCN1CCC2(CC1)CC(c1ccc(C(=N)N)cc1)=NO2 [Example 7, Hydrochloride] | 5.55 |  | 
27 | O=C(O)CN1C(=O)CC2(CCN(CCc3ccncc3)CC2)CC1=O [Example 26, (9-(2-(Pyridin-4-yl)ethyl)-2,4-dioxo-3,9-diazaspiro[5.5]undec-3-yl)acetic Acid Trifluoroacetate] | < 4.00 |  | 
28 | CCOC(=O)CC1CCC2(CC1)CCN(CCc1ccncc1)CC2 [Example 22, Ethyl (3-(2-(Pyridin-4-yl)ethyl)-3-azaspiro[5.5]undec-9-yl)acetate] | < 4.00 |  | 
29 | N=C(N)c1ccc(C(=O)N2CCC3(CCN(C(=O)CCCC(=O)O)CC3)CC2)cc1 [Example 42, 5-((3-(4-Aminoiminomethyl)benzoyl)-3,9-diaza-spiro[5.5]undec-9-yl)-5-oxopentanoic Acid] | 5.00 | 5.46 | 
30 | N=C(N)c1ccc(CC(=O)NC2CCC3(CC2)CN(CC(=O)O)C(=O)O3)cc1 (stereo not drawn) [Example 35, (8-(2-(4-(Aminoiminomethyl)phenyl)acetamido)-2-oxo-1-oxa-3-aza-spiro[4.5]dec-3-yl)acetic Acid] | 6.11 | 6.72 | 193 to 196
31 | N=C(N)c1ccc(CC(=O)N2CCC3(CC2)CN(CC(=O)O)C(=O)O3)cc1 [Example 31, (8-(2-(4-Aminoiminomethyl)acetyl)-2-oxo-1-oxa-3,8-diaza-spiro[4.5]dec-3-yl)acetic Acid.] | 5.95 | 7.13 | 
32 | N=C(N)c1ccc(C(=O)N2CCC3(CCN(CC(=O)O)C(=O)O3)CC2)cc1 [Example 33, (9-(4-(Aminoiminomethyl)benzoyl)-2-oxo-1-oxa-3,9-diaza-spiro[5.5]undec-3-yl)acetic Acid] | 4.18 | 4.78 | 
33 | N=C(N)c1ccc(C(=O)N2CCC3(CC2)CN(CCCC(=O)O)C(=O)CO3)cc1 [Example 12, Hydrochloride] | < 5.00 |  | 
34 | N=C(N)NCCCCCC(=O)N1CCC2(CC1)CN(CC(=O)O)C(=O)O2 [Example 39] | 4.92 | 5.57 | 

Reference: patent US6528534B2 (Millennium Pharmaceuticals, Inc., priority 1995, dated 2003)
